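Exposure lasted 48 hours, with cells grown in 96-well plates and compounds tested at five concentrations. GI50 = concentration required for 50% inhibition of growth.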 The source made the active and inactive calls. Rule as the data show it: active = GI50 up to about 1.1 µM and inactive = higher.
What was measured:
Test in all cases: growth of human tumour cells (NCI), 48 h
NCI/ADR-RES = system: NCI/ADR-RES
OVCAR-4 = system: OVCAR-4
KM12 = system: KM12
MCF7 = system: MCF7
NCI-H226 = system: NCI-H226
NCI-H23 = system: NCI-H23
TK-10 = system: TK-10
RPMI-8226 = system: RPMI-8226
OVCAR-3 = system: OVCAR-3
DU-145 = system: DU-145
SF-268 = system: SF-268
CAKI-1 = system: CAKI-1
MDA-MB-231 = system: MDA-MB-231
SF-539 = system: SF-539
HCT-15 = system: HCT-15
SF-295 = system: SF-295
K562 = system: K562
SK-MEL-2 = system: SK-MEL-2
HOP-92 = system: HOP-92
SN12C = system: SN12C
HL-60 = system: HL-60
A498 = system: A498
COLO 205 = system: COLO 205
NCI-H522 = system: NCI-H522
UACC-62 = system: UACC-62
OVCAR-8 = system: OVCAR-8
OVCAR-5 = system: OVCAR-5
SK-MEL-28 = system: SK-MEL-28
LOX IMVI = system: LOX IMVI
UO-31 = system: UO-31
Malme-3M = system: Malme-3M
UACC-257 = system: UACC-257
PC-3 = system: PC-3
MOLT-4 = system: MOLT-4
MDA-MB-435 = system: MDA-MB-435
SNB-75 = system: SNB-75
Hs-578T = system: Hs-578T
NCI-H460 = system: NCI-H460
HCC 2998 = system: HCC 2998
SNB-19 = system: SNB-19
CCRF-CEM = system: CCRF-CEM
A549 = system: A549
ACHN = system: ACHN
SK-MEL-5 = system: SK-MEL-5
T47D = system: T47D
U-251 = system: U-251
SW-620 = system: SW-620
HT-29 = system: HT-29
SK-OV-3 = system: SK-OV-3
HOP-62 = system: HOP-62
HCT-116 = system: HCT-116
786-0 = system: 786-0
IGROV-1 = system: IGROV-1
M14 = system: M14
EKVX = system: EKVX
MDA-N = system: MDA-N
SR = system: SR
BT-549 = system: BT-549
RXF 393 = system: RXF 393

O=C1C=C(NCC(c2ccccc2)c2ccccc2)C(=O)c2ncccc21
GI50 (NCI/ADR-RES): 2.49 µM (inactive)
GI50 (OVCAR-4): 1.84 µM (inactive)
GI50 (KM12): 2.19 µM (inactive)
GI50 (MCF7): 1.4 µM (inactive)
GI50 (NCI-H226): 3.1 µM (inactive)
GI50 (NCI-H23): 1.54 µM (inactive)
GI50 (TK-10): 17 µM (inactive)
GI50 (RPMI-8226): 1.72 µM (inactive)
GI50 (OVCAR-3): 0.991 µM (active)
GI50 (DU-145): 1.96 µM (inactive)
GI50 (SF-268): 2.53 µM (inactive)
GI50 (CAKI-1): 2.4 µM (inactive)
GI50 (MDA-MB-231): 2.67 µM (inactive)
GI50 (SF-539): 3.09 µM (inactive)
GI50 (HCT-15): 0.504 µM
GI50 (SF-295): 1.74 µM (inactive)
GI50 (K562): 1.38 µM (inactive)
GI50 (SK-MEL-2): 2.28 µM (inactive)
GI50 (HOP-92): 2.26 µM (inactive)
GI50 (SN12C): 2.1 µM (inactive)
GI50 (HL-60): 1.15 µM (inactive)
GI50 (A498): 2.24 µM (inactive)
GI50 (COLO 205): 9.89 µM (inactive)
GI50 (NCI-H522): 1.34 µM (inactive)
GI50 (UACC-62): 1.39 µM (inactive)
GI50 (OVCAR-8): 2.39 µM (inactive)
GI50 (OVCAR-5): 5.14 µM (inactive)
GI50 (SK-MEL-28): 2.85 µM (inactive)
GI50 (LOX IMVI): 1.11 µM (active)
GI50 (UO-31): 1.11 µM (active)
GI50 (Malme-3M): 1.36 µM (inactive)
GI50 (UACC-257): 0.877 µM (active)
GI50 (PC-3): 1.75 µM (inactive)
GI50 (MOLT-4): 2.31 µM (inactive)
GI50 (MDA-MB-435): 1.35 µM (inactive)
GI50 (SNB-75): 0.507 µM (active)
GI50 (Hs-578T): 2.63 µM (inactive)
GI50 (NCI-H460): 0.518 µM (active)
GI50 (HCC 2998): 0.785 µM (active)
GI50 (SNB-19): 2.58 µM (inactive)
GI50 (CCRF-CEM): 2.64 µM (inactive)
GI50 (A549): 0.668 µM (active)
GI50 (ACHN): 2.28 µM (inactive)
GI50 (SK-MEL-5): 0.427 µM (active)
GI50 (T47D): 3.08 µM (inactive)
GI50 (U-251): 2.05 µM (inactive)
GI50 (SW-620): 1.83 µM (inactive)
GI50 (HT-29): 7.45 µM (inactive)
GI50 (SK-OV-3): 7.33 µM (inactive)
GI50 (HOP-62): 1.57 µM (inactive)
GI50 (HCT-116): 8.53 µM (inactive)
GI50 (786-0): 2.88 µM (inactive)
GI50 (IGROV-1): 1.38 µM (inactive)
GI50 (M14): 1.61 µM (inactive)
GI50 (EKVX): 2.07 µM (inactive)
GI50 (MDA-N): 1.6 µM (inactive)
GI50 (SR): 1.63 µM (inactive)
GI50 (BT-549): 1.06 µM (active)

CCCCCCCCCCCCCCCCNC(=O)/C(=C\c1ccc(Cl)c(Cl)c1)NC(=O)c1ccccc1
GI50 (NCI/ADR-RES): 48.3 µM (inactive)
GI50 (OVCAR-4): 24.8 µM (inactive)
GI50 (KM12): 52.6 µM (inactive)
GI50 (MCF7): 25.9 µM (inactive)
GI50 (NCI-H226): 23.6 µM (inactive)
GI50 (NCI-H23): 22.8 µM (inactive)
GI50 (TK-10): 20 µM (inactive)
GI50 (RPMI-8226): 24.4 µM (inactive)
GI50 (OVCAR-3): > 100 µM (inactive)
GI50 (DU-145): 27.4 µM (inactive)
GI50 (SF-268): 46.9 µM (inactive)
GI50 (CAKI-1): 66.7 µM (inactive)
GI50 (MDA-MB-231): 18 µM (inactive)
GI50 (SF-539): 16.5 µM (inactive)
GI50 (HCT-15): 30.8 µM
GI50 (SF-295): 55.2 µM (inactive)
GI50 (RXF 393): 15.7 µM (inactive)
GI50 (K562): 22 µM (inactive)
GI50 (SK-MEL-2): > 100 µM (inactive)
GI50 (HOP-92): 14.2 µM (inactive)
GI50 (SN12C): 25.8 µM (inactive)
GI50 (HL-60): 0.431 µM (active)
GI50 (A498): 19.9 µM (inactive)
GI50 (COLO 205): 35.1 µM (inactive)
GI50 (NCI-H522): 37.2 µM (inactive)
GI50 (OVCAR-8): 59.6 µM (inactive)
GI50 (OVCAR-5): 47.2 µM (inactive)
GI50 (SK-MEL-28): 70.1 µM (inactive)
GI50 (LOX IMVI): 21.9 µM (inactive)
GI50 (UO-31): 42 µM (inactive)
GI50 (Malme-3M): > 100 µM (inactive)
GI50 (UACC-257): > 100 µM (inactive)
GI50 (PC-3): 26.5 µM (inactive)
GI50 (MOLT-4): 15.5 µM (inactive)
GI50 (MDA-MB-435): > 100 µM (inactive)
GI50 (SNB-75): 16.7 µM (inactive)
GI50 (Hs-578T): 42.8 µM (inactive)
GI50 (NCI-H460): 36.6 µM (inactive)
GI50 (SNB-19): 46.3 µM (inactive)
GI50 (A549): 43.6 µM (inactive)
GI50 (ACHN): 47.4 µM (inactive)
GI50 (SK-MEL-5): > 100 µM (inactive)
GI50 (T47D): > 100 µM (inactive)
GI50 (U-251): 35.4 µM (inactive)
GI50 (SW-620): 31.7 µM (inactive)
GI50 (HT-29): 35.5 µM (inactive)
GI50 (SK-OV-3): 53 µM (inactive)
GI50 (HOP-62): 21.4 µM (inactive)
GI50 (HCT-116): 37.9 µM (inactive)
GI50 (786-0): 19.4 µM (inactive)
GI50 (IGROV-1): 16.8 µM (inactive)
GI50 (M14): > 100 µM (inactive)
GI50 (EKVX): 44.3 µM (inactive)
GI50 (MDA-N): 68.7 µM (inactive)
GI50 (SR): 18.2 µM (inactive)
GI50 (BT-549): > 100 µM (inactive)

Source: ChEMBL document CHEMBL1201862, “PubChem BioAssay data set” (2004)
